Reference: ChEMBL document CHEMBL1201862, “PubChem BioAssay data set” (2004)
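Protocol summary: plate cells (96-well), add compound at 5 concentrations, incubate 48 h, interpolate endpoints linearly. Here, GI50 denotes the concentration required for 50% inhibition of growth.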 Active and inactive are the calls of the source. Rule as the data show it: active = GI50 up to about 1.1 µM and inactive = higher.

Legend:
Test in all cases: DTP human tumour cell line panel, 48 h
BT-549 = tested on: BT-549
K562 = tested on: K562
CAKI-1 = tested on: CAKI-1
ACHN = tested on: ACHN
RPMI-8226 = tested on: RPMI-8226
MDA-MB-231 = tested on: MDA-MB-231
MOLT-4 = tested on: MOLT-4
LOX IMVI = tested on: LOX IMVI
HCT-15 = tested on: HCT-15
OVCAR-5 = tested on: OVCAR-5
Hs-578T = tested on: Hs-578T
NCI/ADR-RES = tested on: NCI/ADR-RES
HCT-116 = tested on: HCT-116
U-251 = tested on: U-251
A549 = tested on: A549
HOP-92 = tested on: HOP-92
SK-MEL-2 = tested on: SK-MEL-2
PC-3 = tested on: PC-3
UACC-257 = tested on: UACC-257
UO-31 = tested on: UO-31

Measured: GI50

O=c1[nH]c2ccccc2c(=O)n1/N=C/c1ccc(O)cc1
> 100 µM: HCT-15
inactive: BT-549 64.3 µM | K562 > 100 µM | CAKI-1 > 100 µM | ACHN > 100 µM | RPMI-8226 > 100 µM | MDA-MB-231 45.5 µM | MOLT-4 > 100 µM | LOX IMVI 60.4 µM | OVCAR-5 > 100 µM | Hs-578T 31.7 µM | NCI/ADR-RES 50.9 µM | HCT-116 > 100 µM | U-251 79.4 µM | A549 > 100 µM | HOP-92 26.1 µM | SK-MEL-2 66.7 µM | PC-3 73.5 µM | UACC-257 > 100 µM | UO-31 > 100 µM

CC1(C)[C@H]2Cc3cc(-c4cc5c(cn4)[C@@H]4C[C@H]([C@@H]5[C@@H]5c6cc(-c7cc8c(cn7)[C@@H]7C[C@H](C8)C7(C)C)ncc6[C@@H]6C[C@H]5C6(C)C)C4(C)C)ncc3[C@@H]1C2
inactive: BT-549 > 100 µM | K562 > 100 µM | CAKI-1 > 100 µM | ACHN > 100 µM | RPMI-8226 > 100 µM | MDA-MB-231 > 100 µM | MOLT-4 > 100 µM | LOX IMVI > 100 µM | OVCAR-5 > 100 µM | Hs-578T > 100 µM | NCI/ADR-RES > 100 µM | HCT-116 > 100 µM | U-251 > 100 µM | A549 > 100 µM | HOP-92 > 100 µM | SK-MEL-2 > 100 µM | PC-3 > 100 µM | UACC-257 > 100 µM | UO-31 > 100 µM
> 100 µM: HCT-15

CN(C)CCCn1c(Cc2ccc(Cl)cc2)nc2cc(C(F)(F)F)ccc21
17.1 µM: HCT-15
inactive: BT-549 17 µM | K562 6.41 µM | CAKI-1 13.3 µM | ACHN 13.2 µM | RPMI-8226 40.8 µM | MDA-MB-231 13.6 µM | MOLT-4 11.2 µM | LOX IMVI 14.5 µM | OVCAR-5 17.7 µM | Hs-578T 16.6 µM | NCI/ADR-RES 15.7 µM | HCT-116 12.5 µM | U-251 15.3 µM | A549 18.2 µM | HOP-92 9.98 µM | SK-MEL-2 16.9 µM | PC-3 15.4 µM | UACC-257 15.6 µM
active: UO-31 0.301 µM

Oc1ccc2ccccc2c1CN(Cc1c(O)ccc2ccccc12)C1CCCCC1
inactive: BT-549 19.8 µM | K562 19.5 µM | CAKI-1 16.6 µM | ACHN 18.3 µM | RPMI-8226 25.1 µM | MDA-MB-231 18.5 µM | MOLT-4 16.6 µM | LOX IMVI 15 µM | OVCAR-5 41.9 µM | Hs-578T 26.4 µM | NCI/ADR-RES 23.5 µM | HCT-116 15.8 µM | U-251 20.2 µM | A549 19.4 µM | HOP-92 18 µM | SK-MEL-2 23.3 µM | PC-3 17 µM | UACC-257 15.3 µM | UO-31 17.1 µM
20.6 µM: HCT-15

CN1CCN(c2cc3nc4cc(O)cc(O)c4c(O)c3cc2N)CC1
active: MOLT-4 0.33 µM
inactive: BT-549 28.6 µM | K562 14.5 µM | CAKI-1 23.3 µM | ACHN 27.5 µM | RPMI-8226 20.8 µM | MDA-MB-231 1.53 µM | LOX IMVI 16.2 µM | OVCAR-5 23.9 µM | Hs-578T 29.7 µM | NCI/ADR-RES 57.5 µM | HCT-116 35.8 µM | U-251 17.6 µM | A549 61 µM | HOP-92 10.6 µM | SK-MEL-2 19.4 µM | PC-3 18.1 µM | UACC-257 38.8 µM | UO-31 19.7 µM
67 µM: HCT-15
